Laboratory results: publication PMC6899576, “Structure‐Based Screening of Tetrazolylhydrazide Inhibitors versus KDM4 Histone Demethylases” (Chemmedchem, 2019)

Columns and labels:
KDM4D = target: T1, KDM4D (Homo sapiens, UniProt Q6B0I6); experiment: isothermal titration calorimetry; assay type: binding
T1 construct: catalytic core, residues 1-342 (11-342 visible in crystals); pQTEV N-terminal His6 tag removed by TEV protease; E. coli
T1 sequence (Q6B0I6 1-342): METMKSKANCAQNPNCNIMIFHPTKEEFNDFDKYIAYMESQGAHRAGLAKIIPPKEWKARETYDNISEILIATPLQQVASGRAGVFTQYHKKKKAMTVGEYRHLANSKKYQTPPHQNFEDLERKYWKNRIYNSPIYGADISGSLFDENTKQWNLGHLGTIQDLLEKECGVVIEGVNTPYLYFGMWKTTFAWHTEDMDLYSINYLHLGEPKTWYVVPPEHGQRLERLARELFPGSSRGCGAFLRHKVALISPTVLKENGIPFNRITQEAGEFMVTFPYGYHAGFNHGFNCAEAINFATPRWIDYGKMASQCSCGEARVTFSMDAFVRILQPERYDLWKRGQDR
Description: isothermal titration calorimetry on KDM4D

KDM4A = target: T2, KDM4A (Homo sapiens, UniProt O75164); experiment: LANCE Ultra antibody-based demethylase assay; assay type: biochemical
T2 construct: catalytic domain, residues 1-359; pQTEV N-terminal His6 tag removed by TEV protease
T2 sequence (O75164 1-359): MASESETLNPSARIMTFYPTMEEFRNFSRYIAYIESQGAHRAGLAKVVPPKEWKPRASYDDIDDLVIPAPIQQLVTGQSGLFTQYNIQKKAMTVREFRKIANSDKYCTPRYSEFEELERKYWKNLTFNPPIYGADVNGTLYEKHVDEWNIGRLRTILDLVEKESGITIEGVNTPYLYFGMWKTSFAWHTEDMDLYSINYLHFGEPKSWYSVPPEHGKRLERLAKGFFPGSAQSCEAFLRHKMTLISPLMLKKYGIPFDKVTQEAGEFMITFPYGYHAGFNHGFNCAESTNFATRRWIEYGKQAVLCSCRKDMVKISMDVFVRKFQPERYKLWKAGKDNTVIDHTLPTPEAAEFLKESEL
Description: LANCE Ultra antibody-based demethylase assay on KDM4A

Row | Compound | Kd (KDM4D) [µM] | IC50 (KDM4A) [µM]
1 | NNC(=O)c1cccc(-c2nn[nH]n2)c1 [compound 7] | 41 ± 15 | 195 ± 39
2 | NNC(=O)c1ccc(-c2nn[nH]n2)cc1 [compound 6] |  | 216 ± 33
3 | NNC(=O)Cc1nnn[nH]1 [compound 1] | 2.3 ± 0.9 | 
